This note sets out measurements from patent publication US4886807A, “Novel pyrimidopyrimidine derivative, process for producing it and pharmaceutical composition” (Nippon Zoki Pharmaceutical Co., Ltd., priority 1988, dated 1989).

As usually defined, the inhibition in vivo is the drop in the measured response relative to a control, in per cent. A lower inhibition in vivo goes with little suppression. For orientation: LD50 means the dose at which mortality reaches 50%.

SMILES strings stand for the structures.

In data set [1] the test system is PCA (passive cutaneous anaphylaxis) reaction. The data set can be described thus: Anti-allergic effect: PCA (passive cutaneous anaphylaxis) reaction in rats. Type of data set: in vivo, rats (Wister-strain, male). The settings on record: oral, 1 hour before challenge; for Leak of Dye: control 10.7 ± 1.0; for inhibition in vivo at 20 mg/kg / inhibition in vivo at 50 mg/kg / inhibition in vivo at 100 mg/kg: Rattus norvegicus, inhibition of dye leakage. Here is the method: PCA (passive cutaneous anaphylaxis) reaction in rats was taken as an index to an anti-allergic effect of the compound of the present invention.
In order to perform sensitization, anti-DNP-Asc (dinitrophenylated Ascaris extracts) serum diluted with saline was injected intradermally at 4 sites on the shaved back of groups of 10 Wister-strain male rats (6 weeks of age). 1 hour after oral administration of the test drug, the mixture of equivalent amounts of DNP-Asc (5 mg/ml) and 2% Evans blue were intravenously injected to generate PCA reaction. 30 minutes thereafter, rats were killed by decapitation and exsanguinated. The skin was opened in order to evaluate the leakage of blue dye. The obtained skin was dissolved in 2N potassium hydroxide, then 2N phosphoric acid and acetone were added thereto. The amount of dye was determined by measurement of absorbance at 620 nm after centrifugation.

The next data set is described as follows: Acute toxicity test. The settings on record: mouse, in vivo, mice, mortality for 7 days after administration, probit method. Here is the method: The test compounds were administered to groups of 10 ddy-strain male mice (weighing about 20 g). LD50 values of the compounds of the invention were calculated by the probit method based on mortality for 7 days after drug administration.

For `Cn1c(=O)c2cnc(N)nc2n(C)c1=O` [compound 6, 7-amino-1,3-dimethylpyrimido[4,5-d]pyrimidine-2,4-dione], in data set [1] (20 mg/kg), the “Leak of Dye” value worked out at 5.0 ± 0.9 μg/site and testing at 20 mg/kg gave an inhibition in vivo of 53.3%. Further, in data set [1] (50 mg/kg), the “Leak of Dye” value turned out to be 2.3 ± 0.7 μg/site and the inhibition in vivo at 50 mg/kg was 78.5%. In data set [1] (100 mg/kg), the “Leak of Dye” value was 0.7 ± 0.2 μg/site and the inhibition in vivo at 100 mg/kg worked out at 93.5%. The LD50 at 168 h in the data set “Acute toxicity test” (ip) stood at 140 mg/kg. In “Acute toxicity test” (po), this compound returned an LD50 at 168 h of 940 mg/kg.
`Cn1c(=O)c2cncnc2n(C)c1=O` [compound 5, 1,3-dimethylpyrimido[4,5-d]pyrimidine-2,4-dione]: in data set [1] (50 mg/kg), the “Leak of Dye” value came out at 4.1 ± 0.8 μg/site and the inhibition in vivo at 50 mg/kg amounted to 61.7%.
Turning to `Cc1nc(N)c2c(=O)n(C)c(=O)n(C)c2n1` [compound 12, 5-amino-1,3,7-trimethylpyrimido[4,5-d]pyrimidine-2,4-dione], in data set [1] (100 mg/kg), the “Leak of Dye” value is on record as 1.0 ± 0.3 μg/site and the inhibition in vivo at 100 mg/kg is 90.7%. The same compound had an LD50 at 168 h in “Acute toxicity test” (po) of 707 mg/kg.
On to `CC(C)Cn1c(=O)n(C)c(=O)c2cnc(N)nc21` [compound 18, 7-amino-1-iso-butyl 3-methylpyrimido[4,5-d]pyrimidine-2,4-dione], for which, in data set [1] (100 mg/kg), the “Leak of Dye” value was found to be 4.0 ± 0.6 μg/site and the inhibition in vivo at 100 mg/kg turned out to be 62.6%.
Consider `Cn1c(=O)c2cnc(N)nc2n(-c2ccccc2)c1=O` [compound 7, 7-amino-1-phenyl-3-methylpyrimido[4,5-d]pyrimidine-2,4-dione], for which, in data set [1] (100 mg/kg), the “Leak of Dye” value is listed as 5.4 ± 0.7 μg/site and the inhibition in vivo at 100 mg/kg worked out at 49.5%.
`CC(C)Cn1c(=O)n(C)c(=O)c2c(N)ncnc21` [compound 11, 5-amino-1-iso-butyl-3-methylpyrimido[4,5-d]pyrimidine-2,4-dione]: in data set [1] (100 mg/kg), the “Leak of Dye” value is 2.9 ± 0.8 μg/site and the inhibition in vivo at 100 mg/kg was 72.9%.
On the same counts, the results for `CNc1ncnc2c1c(=O)n(C)c(=O)n2C` [compound 16, 5-methylamino-1,3-dimethylpyrimido[4,5-d]pyrimidine-2,4-dione] are 1.7 ± 0.6 μg/site and 84.1%.
With `Cn1c(=O)c2cnc(C(F)(F)F)nc2n(C)c1=O` [compound 4, 7-trifluoromethyl-1,3-dimethylpyrimido[4,5-d]pyrimidine-2,4-dione], in data set [1] (50 mg/kg), the “Leak of Dye” value was found to be 6.6 ± 1.1 μg/site and the inhibition in vivo at 50 mg/kg was 38.3%.
In the same order, the values of `Cn1c(=O)c2cnc(-c3ccccc3)nc2n(C)c1=O` [compound 2, 7-phenyl-1,3-dimethylpyrimido[4,5-d]pyrimidine-2,4-dione] are 8.2 ± 0.9 μg/site and 23.4%.
Consider `Cn1c(=O)c2[nH]cnc2n(C)c1=O` [Theophylline, reference compound], for which, in data set [1] (20 mg/kg), the “Leak of Dye” value came to 3.5 ± 1.3 μg/site and the inhibition in vivo at 20 mg/kg stood at 67.3%.
On to `CCn1c(=O)c2cnc(N)nc2n(CC)c1=O` [compound 17, 7-amino-1,3-diethyl-pyrimido[4,5-d]pyrimidine-2,4-dione], for which, in data set [1] (100 mg/kg), the “Leak of Dye” value came to 2.4 ± 0.7 μg/site and 100 mg/kg produced 77.6% inhibition in vivo.
As for `CCn1c(=O)c2c(N)ncnc2n(CC)c1=O` [compound 10, 5-amino-1,3-diethylpyrimido[4,5-d]pyrimidine-2,4-dione], in data set [1] (100 mg/kg), the “Leak of Dye” value is 1.6 ± 0.4 μg/site and the inhibition in vivo at 100 mg/kg was found to be 85%. In the data set “Acute toxicity test” (po), this compound displayed an LD50 at 168 h of 748 mg/kg.
`Cn1c(=O)c2c(N)ncnc2n(C)c1=O` [compound 9, 5-amino-1,3-dimethylpyrimido[4,5-d]pyrimidine-2,4-dione]: in data set [1] (20 mg/kg), the “Leak of Dye” value is recorded as 5.9 ± 1.2 μg/site and at 20 mg/kg the inhibition in vivo was 44.9%. For the same compound, in data set [1] (100 mg/kg), the “Leak of Dye” value came out at 0.6 ± 0.1 μg/site and the inhibition in vivo at 100 mg/kg was found to be 94.4%.
`CNc1ncc2c(=O)n(C)c(=O)n(C)c2n1` [compound 8, 7-methylamino-1,3-dimethylpyrimido[4,5-d]pyrimidine-2,4-dione]: in data set [1] (20 mg/kg), the “Leak of Dye” value is listed as 7.6 ± 1.6 μg/site and the inhibition in vivo at 20 mg/kg turned out to be 29%. Moreover, in data set [1] (50 mg/kg), the “Leak of Dye” value came out at 2.8 ± 0.7 μg/site and the inhibition in vivo at 50 mg/kg is 73.8%.
Take `Cc1ncc2c(=O)n(C)c(=O)n(C)c2n1` [compound 3, 1,3,7-trimethylpyrimido[4,5-d]pyrimidine-2,4-dione]: in data set [1] (50 mg/kg), the “Leak of Dye” value is reported as 4.2 ± 0.5 μg/site and the inhibition in vivo at 50 mg/kg stood at 60.7%. The LD50 at 168 h in “Acute toxicity test” (po) is 690 mg/kg.
Consider `Cn1c(=O)c2c(N)nc(N)nc2n(C)c1=O` [compound 14, 5,7-diamino-1,3-dimethylpyrimido[4,5-d]pyrimidine-2,4-dione], for which, in data set [1] (100 mg/kg), the “Leak of Dye” value turned out to be 1.9 ± 0.5 μg/site and the inhibition in vivo at 100 mg/kg was determined as 82.2%.
